Format in all cases: functional, cell membranes, Plasma membrane
Settings in all cases: cem-vlb

Series [1] concerns the target T1, ATP-dependent translocase ABCB1 (Homo sapiens, UniProt P08183). In words: TP_TRANSPORTER: inhibition of IAAP photoaffinity labelling (IAAP: 0.02 uM, PSC-833: 100-fold molar excess) in plasma membranes from CEM/VLB1.0 cells.
For series [2], the target named is T1, ATP-dependent translocase ABCB1. In words: TP_TRANSPORTER: inhibition of Ivermectin binding (IVM: 0.2 uM, Vinblastine: 300-fold molar excess) in plasma membranes from CEM/VLB1.0 cells. More on the design: scale not given: the % may be the effect or the level left.
The target is the same in series [3]. In words: TP_TRANSPORTER: inhibition of Vinblastine binding (Vinblastine: 0.2 uM, IVM: 300-fold molar excess) in plasma membranes from CEM/VLB1.0 cells. Also on record: scale not given: the % may be the effect or the level left.
For series [4] the target is unchanged. The series is described as follows: TP_TRANSPORTER: inhibition of IAAP photoaffinity labelling (IAAP: 0.02 uM, IVM: 100-fold molar excess) in plasma membranes from CEM/VLB1.0 cells. Also on record: scale not given: the % may be the effect or the level left.

T1 sequence (P08183 whole entry): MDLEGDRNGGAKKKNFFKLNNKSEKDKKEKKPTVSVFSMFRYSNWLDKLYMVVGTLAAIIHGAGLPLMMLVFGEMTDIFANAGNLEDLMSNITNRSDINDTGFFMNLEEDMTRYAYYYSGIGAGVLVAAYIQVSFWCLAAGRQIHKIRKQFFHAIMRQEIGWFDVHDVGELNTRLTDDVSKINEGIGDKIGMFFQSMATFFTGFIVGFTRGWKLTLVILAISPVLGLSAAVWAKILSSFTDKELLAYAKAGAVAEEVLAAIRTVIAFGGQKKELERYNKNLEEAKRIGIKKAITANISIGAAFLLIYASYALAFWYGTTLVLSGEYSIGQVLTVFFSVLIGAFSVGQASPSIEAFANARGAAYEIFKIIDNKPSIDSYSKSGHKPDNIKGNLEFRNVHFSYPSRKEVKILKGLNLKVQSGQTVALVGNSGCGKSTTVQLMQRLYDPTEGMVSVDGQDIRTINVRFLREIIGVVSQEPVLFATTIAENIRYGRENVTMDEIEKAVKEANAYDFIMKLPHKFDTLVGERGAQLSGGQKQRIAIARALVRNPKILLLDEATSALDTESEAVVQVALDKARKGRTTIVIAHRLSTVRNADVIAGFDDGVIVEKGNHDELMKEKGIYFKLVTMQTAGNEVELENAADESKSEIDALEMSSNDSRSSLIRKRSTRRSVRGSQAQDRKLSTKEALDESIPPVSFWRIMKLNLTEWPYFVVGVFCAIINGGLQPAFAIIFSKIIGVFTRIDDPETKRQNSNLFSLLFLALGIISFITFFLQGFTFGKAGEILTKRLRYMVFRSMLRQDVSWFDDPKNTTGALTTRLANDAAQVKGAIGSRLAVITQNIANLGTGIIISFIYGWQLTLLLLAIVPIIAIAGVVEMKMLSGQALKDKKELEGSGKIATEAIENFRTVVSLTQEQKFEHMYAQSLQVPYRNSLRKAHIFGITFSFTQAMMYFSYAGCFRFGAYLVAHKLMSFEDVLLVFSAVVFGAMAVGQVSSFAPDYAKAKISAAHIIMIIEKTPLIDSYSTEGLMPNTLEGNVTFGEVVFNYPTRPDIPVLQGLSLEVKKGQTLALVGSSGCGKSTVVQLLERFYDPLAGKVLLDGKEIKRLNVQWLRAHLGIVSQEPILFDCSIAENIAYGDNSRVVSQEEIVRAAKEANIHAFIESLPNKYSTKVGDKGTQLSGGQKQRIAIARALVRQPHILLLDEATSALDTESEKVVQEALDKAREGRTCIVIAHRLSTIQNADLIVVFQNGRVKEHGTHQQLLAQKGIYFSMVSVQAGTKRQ

For the molecule `C/C=C/C[C@@H](C)C(=O)[C@H]1C(=O)N[C@@H](C(C)C)C(=O)N(C)CC(=O)N(C)[C@@H](CC(C)C)C(=O)N[C@@H](C(C)C)C(=O)N(C)[C@@H](CC(C)C)C(=O)N[C@@H](C)C(=O)N[C@H](C)C(=O)N(C)[C@@H](CC(C)C)C(=O)N(C)[C@@H](CC(C)C)C(=O)N(C)[C@@H](C(C)C)C(=O)N1C` [VALSPODAR], the Activity entry in series [1] is “inhibitor [+]”.
Regarding `CC[C@]1(O)C[C@@H]2CN(CCc3c([nH]c4ccccc34)[C@@](C(=O)OC)(c3cc4c(cc3OC)N(C)[C@H]3[C@@](O)(C(=O)OC)[C@H](OC(C)=O)[C@]5(CC)C=CCN6CC[C@]43[C@@H]65)C2)C1` [VINBLASTINE], the Activity in series [2] turned out to be 44%.
On to IVERMECTIN, for which the Activity in series [3] and in series [4] was 0% throughout.

The values above are taken from ChEMBL document CHEMBL2074336, “Reversal of P-glycoprotein-associated multidrug resistance by ivermectin” (Biochem Pharmacol, 1997).
